Calls of active or inactive are those of the source. No rule for the calls is given here. Some results are limits rather than exact numbers.

Chaperone protein DnaK (Escherichia coli (strain K12)), sequence (P0A6Y8 whole entry, looked up): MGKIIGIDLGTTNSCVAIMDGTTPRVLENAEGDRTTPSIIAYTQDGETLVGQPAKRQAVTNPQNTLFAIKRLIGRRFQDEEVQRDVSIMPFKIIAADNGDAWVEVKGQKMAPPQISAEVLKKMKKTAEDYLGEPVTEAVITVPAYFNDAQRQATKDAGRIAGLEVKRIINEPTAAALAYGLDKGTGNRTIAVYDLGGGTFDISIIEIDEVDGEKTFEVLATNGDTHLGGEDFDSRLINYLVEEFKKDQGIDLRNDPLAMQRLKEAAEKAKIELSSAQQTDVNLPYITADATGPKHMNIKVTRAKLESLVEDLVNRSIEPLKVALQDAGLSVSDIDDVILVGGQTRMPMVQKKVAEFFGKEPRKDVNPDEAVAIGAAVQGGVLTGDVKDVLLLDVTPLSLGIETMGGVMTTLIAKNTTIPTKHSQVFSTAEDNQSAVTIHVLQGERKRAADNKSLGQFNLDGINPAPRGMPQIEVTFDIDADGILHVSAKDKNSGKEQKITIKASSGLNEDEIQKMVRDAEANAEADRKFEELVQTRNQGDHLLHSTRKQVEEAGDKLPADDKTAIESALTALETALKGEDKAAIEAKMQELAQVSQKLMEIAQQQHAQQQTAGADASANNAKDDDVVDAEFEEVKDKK

The experiment addresses Chaperone protein DnaK (Escherichia coli (strain K12)) (UniProt P0A6Y8). Kind of experiment: E. coli DnaK SBD ligand binding – biophysical, NMR, chaperone (AID 1033). As to conditions: Purified DnaK SBD.
Regarding `COCC(=O)Nc1cccc2ccccc12`, the Kd was > 4 mM (inactive).
In the case of `COc1ccccc1/C=C/CN1CCOCC1`, the Kd was > 4 mM (inactive).
Under `CC(C)c1ccc2c(c1)CCC1C(C)(C(N)=O)CCCC21C` (stereo unspecified) stands > 4 mM (inactive).
Under `O=C(Nc1nccs1)c1ccc(=O)[nH]n1` stands > 4 mM (inactive); under `Cc1ccccc1NC(=O)C1CC(=O)N=C(N)S1` (stereo unspecified), > 4 mM (inactive); under `O=C1CCCN1C(=O)CN1CCOCC1`, > 4 mM (inactive).
Under `O=c1[nH]cnc2nc[nH]c12` stands > 4 mM (inactive); under `COC(=O)[C@@H]1C(O)CC[C@H]2CN3CCc4c([nH]c5ccccc45)[C@@H]3C[C@@H]21` (stereo partly specified), > 4 mM (inactive); under `CC1C[C@H]2CC(=O)[C@H]3CCCN4CCC[C@H]2[C@]34C1` (stereo partly specified), > 4 mM (inactive).
Regarding `NC(=O)C1(S(=O)(=O)c2ccccc2)CC1`, the Kd is > 4 mM (inactive).
Under `CN1CCc2c(sc(N)c2C#N)C1` stands > 4 mM (inactive).
Under `O=C(Oc1ccc(-c2nnco2)cc1)N1CCOCC1` stands > 4 mM (inactive).
The value for `COC(=O)CCSCC(=O)Nc1nnc(C)s1` was > 4 mM (inactive); that for `O=C(Nc1ccon1)c1ccc(Br)o1` was > 4 mM (inactive).
Regarding `NS(=O)(=O)c1ccc(N=Cc2ccc[nH]2)cc1`, the Kd is > 4 mM (inactive).
Under `CC(=O)c1cc(C)ccc1OC(=O)c1cccnc1` stands > 4 mM (inactive); under `NC1=NC(=O)CC(C(=O)Nc2ccccc2)S1` (stereo unspecified), > 4 mM (inactive).
Under `CC(=O)NC(c1ccccc1)c1cccnc1` (stereo unspecified) stands > 4 mM (inactive); under `O=c1ccc2nc3ccccc3c(=O)n2[nH]1`, > 4 mM (inactive); under `CN1C(=O)C(Cc2c[nH]c3ccccc23)C(=O)N(C)C1=O`, > 4 mM (inactive).
Under `CSc1ccccc1NC(=O)c1cnccn1` stands > 4 mM (inactive); under `CS(=O)(=O)N1CCN(C(=O)c2ccccc2)CC1`, > 4 mM (inactive); under `NC(=O)CSc1nc2[nH]ncc2c(=O)[nH]1`, > 4 mM (inactive).
Regarding `O=C(O)c1ccc(NCc2cccnc2)cc1`, the Kd was > 4 mM (inactive).
Under `Cc1cc(C)c2ccc[n+]([O-])c2c1O` stands > 4 mM (inactive).
As for `CC1(C)N([O-])c2cc([N+](=O)[O-])ccc2[N+]1=O`, the Kd was > 4 mM (inactive).
Under `Cn1c2c(c(=O)n(C)c1=O)CN(Cc1ccco1)CN2` stands > 4 mM (inactive).
Regarding `O=c1c[n+]([O-])c2ccccc2n1OCc1ccccn1`, the Kd is > 4 mM (inactive).
Under `O=C1Nc2ccccc2C1C1(O)C(=O)Nc2ccc(F)cc21` (stereo unspecified) stands > 4 mM (inactive); under `O=S1(=O)NC(=NCc2ccco2)c2ccccc21`, > 4 mM (inactive).
The value for `COc1ccc(-c2cc(=O)c3ccccc3o2)cc1` was > 4 mM (inactive).
With `O=C1NC(=O)C(C(=S)Nc2ccccc2)C(=O)N1`, the Kd is > 4 mM (inactive).
The value for `O=c1[nH]c(=O)c2[nH]cnc2[nH]1` was > 4 mM (inactive); that for `Cn1c(SCC(N)=O)nc2ccccc2c1=O` was > 4 mM (inactive).
The value for `O=c1cc(CO)oc(CN2CCCCC2)c1O` was > 4 mM (inactive); that for `O=C(O)c1cccnc1N1CCCC1` was > 4 mM (inactive); that for `Cc1cc(C(=O)NCc2cccs2)c(C)o1` was > 4 mM (inactive).
Under `COC(=O)c1c[nH]c2ccccc12` stands > 4 mM (inactive); under `Nc1nc2ccc(C(=O)O)cc2s1`, > 4 mM (inactive).
Regarding `O=C1NC(=Nc2ccc(O)cc2)S/C1=C/c1ccco1`, the Kd was > 4 mM (inactive).
Take `Cc1nn2c(-c3ccncc3)nnc2c2ccccc12`: the Kd was > 4 mM (inactive).
Take `Oc1ccc2c(c1)OCC1(O)Cc3cc(O)c(O)cc3C21` (stereo unspecified): the Kd was > 4 mM (inactive).
The value for `COc1cccc(N2CCNCC2)c1` was > 4 mM (inactive); that for `CCN1CCC(NC2CCC(O)CC2)CC1` (stereo unspecified) was > 4 mM (inactive).
In the case of `N#CCN1C(=O)c2ccccc2S1(=O)=O`, the Kd is > 4 mM (inactive).
Under `O=C(O)c1ccc2c(c1)OCO2` stands > 4 mM (inactive); under `COc1cc(C)c(S(=O)(=O)N2CCN(C)CC2)cc1C`, > 4 mM (inactive).
Under `COc1ccc2c(CC(=O)O)coc2c1` stands > 4 mM (inactive); under `OCC1CCCCCN1` (stereo unspecified), > 4 mM (inactive); under `O=c1c(Cl)c(NCCO)ncn1-c1ccccc1`, > 4 mM (inactive).
Under `O=c1n(-c2ccccc2)c(=O)n2n1CCCC2` stands > 4 mM (inactive); under `C[n+]1ccn(C/C(N)=N/O)c1`, > 4 mM (inactive); under `COc1cc(O)c(C)c(O)c1`, > 4 mM (inactive).
With `COc1ccc2c(=O)c(CC(=O)O)coc2c1`, the Kd was > 4 mM (inactive).
Under `NCc1cccc2nsnc12` stands > 4 mM (inactive); under `O=C1CSC(=Nc2ccccc2[N+](=O)[O-])N1`, > 4 mM (inactive).
As for `Cc1nc(NC2=NCCC(=O)N2)nc2ccccc12`, the Kd is > 4 mM (inactive).
Under `O=C1CCCC2C3CC(CN12)[C@@H]1CCCCN1C3` (stereo partly specified) stands > 4 mM (inactive).
Under `Nc1ccc2ncsc2c1` stands > 4 mM (inactive); under `O=C1CC(=O)N(Cc2ccco2)C(=S)N1`, > 4 mM (inactive).
The value for `Cc1cccc(NS(=O)(=O)c2cccs2)n1` was > 4 mM (inactive); that for `O/N=C1/CCCc2nonc21` was > 4 mM (inactive).
As for `NCc1cc2ccccc2s1`, the Kd is > 4 mM (inactive).
The value for `Cc1c(C)[n+](=O)c(-c2cccs2)c(C)n1[O-]` was > 4 mM (inactive); that for `COc1ncccc1N` was > 4 mM (inactive); that for `Cc1cc(C(=O)N2CCN(c3ncccn3)CC2)c(C)o1` was > 4 mM (inactive).
Under `CCC(C)C(=O)O[C@@H]1C[C@@]2(C)[C@H](c3ccoc3)OC(=O)CC23OC2(C)OC34[C@H](OC(=O)C(C)C)[C@@]3(O)[C@@H](OC(=O)C5(C)OC5C)[C@@]5(C)C[C@]3(O)[C@@](C)([C@H]5CC(=O)OC)C14O2` (stereo partly specified) stands > 4 mM (inactive).
Under `Cc1cccc(-c2nnc(-c3ccc(N)cc3)o2)c1` stands > 4 mM (inactive); under `CCCCCc1c2c(cc(O)c1C(=O)O)OC(=O)c1c(cc(OC)cc1C(=O)CCCC)O2`, > 4 mM (inactive).
Regarding `O=C1C2C3CCC(O3)C2C(=O)N1c1cccc(F)c1` (stereo unspecified), the Kd was > 4 mM (inactive).
The value for `O=c1[nH]c2ccc(S(=O)(=O)NC3CC3)cc2[nH]1` was > 4 mM (inactive); that for `O=C(CO)N/N=C/c1ccccc1F` was > 4 mM (inactive); that for `O=C1NC(=S)S/C1=C/c1ccncc1` was > 4 mM (inactive).
Take `COc1ccc(C)cc1S(=O)(=O)N1CCCCC1`: the Kd is > 4 mM (inactive).
`COC(=O)CSc1nc(N)cc(=O)[nH]1`: the Kd is > 4 mM (inactive).
For `O=C(O)C1COc2ccccc2C1` (stereo unspecified), the Kd was > 4 mM (inactive).

The Kd is a measure of binding affinity in units of concentration.

Source of the values: PubChem BioAssay AID1033 (Sanford-Burnham Center for Chemical Genomics, 2008).
